{"source": "paper PMC7175962", "about": "(Journal of medicinal chemistry, 2019)", "key": {"NDM-1": {"molecular_target": "NDM-1 (Klebsiella pneumoniae, UniProt C7C422)", "sequence (C7C422 29-270, looked up)": "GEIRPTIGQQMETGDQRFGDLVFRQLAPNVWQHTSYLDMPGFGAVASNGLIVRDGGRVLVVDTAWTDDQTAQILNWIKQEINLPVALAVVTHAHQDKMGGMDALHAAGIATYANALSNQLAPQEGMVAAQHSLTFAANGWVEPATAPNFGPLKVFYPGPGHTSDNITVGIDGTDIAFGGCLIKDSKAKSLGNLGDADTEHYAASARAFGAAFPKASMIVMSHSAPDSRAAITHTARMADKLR", "experiment": "NDM-1 inhibition, nitrocefin hydrolysis assay", "type": "biochemical"}, "[1]": {"tested_on": "Gram-negative pathogens (all strains)", "experiment": "Antibacterial activity of inhibitors alone", "type": "cell-based", "conditions": "for antibacterial effects by itself, without imipenem: 128 μg/mL; for MIC: read-out: MIC of compound tested alone"}, "E. coli 5980 (NDM-1)": {"tested_on": "E. coli 5980 (NDM-1)", "experiment": "MIC of imipenem in combination with inhibitor", "type": "cell-based", "conditions": "for reduction of imipenem MIC: compound at 128 μg/mL, NDM-1 producing E. coli"}, "E. cloacae 5981 (NDM-1)": {"tested_on": "E. cloacae 5981 (NDM-1)", "experiment": "MIC of imipenem in combination with inhibitor", "type": "cell-based", "conditions": "for reduction of imipenem MIC: compound at 128 μg/mL, NDM-1 producing E. cloacae"}, "[2]": {"tested_on": "K. pneumoniae 5979 (NDM-1)", "experiment": "MIC of imipenem in combination with inhibitor", "type": "cell-based", "conditions": "for reduction of imipenem MIC: compound at 128 μg/mL, NDM-1 producing K. pneumoniae"}, "[3]": {"tested_on": "P. aeruginosa 4698 (VIM-2)", "experiment": "MIC of imipenem in combination with inhibitor", "type": "cell-based"}, "[4]": {"experiment": "Kinetic solubility in pH 7.4 PBS", "type": "physicochemical"}, "KPC-2": {"molecular_target": "KPC-2 (Klebsiella pneumoniae, UniProt Q9F663)", "sequence (Q9F663 25-293, looked up)": "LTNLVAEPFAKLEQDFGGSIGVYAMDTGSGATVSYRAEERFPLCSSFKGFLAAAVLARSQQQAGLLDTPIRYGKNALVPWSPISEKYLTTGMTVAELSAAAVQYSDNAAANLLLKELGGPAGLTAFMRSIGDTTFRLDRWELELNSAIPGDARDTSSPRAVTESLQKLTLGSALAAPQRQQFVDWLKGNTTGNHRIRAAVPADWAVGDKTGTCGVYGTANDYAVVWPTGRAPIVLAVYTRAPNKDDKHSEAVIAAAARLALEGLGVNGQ", "type": "biochemical"}, "VIM-2": {"molecular_target": "VIM-2 (Pseudomonas aeruginosa, UniProt Q9K2N0)", "experiment": "VIM-2 inhibition, nitrocefin hydrolysis assay", "type": "biochemical", "conditions": "VIM-2 versus NDM-1"}, "[5]": {"tested_on": "P. aeruginosa(eflx+) 4177 (NDM-1)", "experiment": "Checkerboard assay, imipenem plus inhibitor", "type": "cell-based"}, "[6]": {"tested_on": "K. pneumoniae C2 (KPC-2), clinical strain", "experiment": "Checkerboard assay, imipenem plus inhibitor", "type": "cell-based"}, "[7]": {"tested_on": "P. aeruginosa 4882 (VIM-2), lacking efflux pumps", "experiment": "Checkerboard assay, imipenem plus inhibitor", "type": "cell-based"}, "[8]": {"tested_on": "P. aeruginosa 4129 (NDM-1), lacking efflux pumps", "experiment": "Checkerboard assay, imipenem plus inhibitor", "type": "cell-based"}, "[9]": {"tested_on": "K. pneumoniae 4683 (KPC-2)", "experiment": "MIC of imipenem in combination with inhibitor", "type": "cell-based", "conditions": "Klebsiella pneumoniae, read-out: MIC of imipenem"}, "[10]": {"tested_on": "P. aeruginosa 4135 (KPC-2), lacking efflux pumps", "experiment": "Checkerboard assay, imipenem plus inhibitor", "type": "cell-based", "conditions": "Pseudomonas aeruginosa, read-out: MIC of imipenem"}, "[11]": {"tested_on": "P. aeruginosa(eflx+) 4175 (vector)", "experiment": "MIC of imipenem, vector control strain", "type": "cell-based", "conditions": "Pseudomonas aeruginosa, read-out: MIC of imipenem"}, "[12]": {"tested_on": "P. aeruginosa 4173 (vector)", "experiment": "MIC of imipenem, vector control strain", "type": "cell-based", "conditions": "Pseudomonas aeruginosa, read-out: MIC of imipenem"}, "[13]": {"tested_on": "P. aeruginosa(eflx+) 4402 (VIM-2)", "experiment": "Checkerboard assay, imipenem plus inhibitor", "type": "cell-based", "conditions": "Pseudomonas aeruginosa, read-out: MIC of imipenem"}, "[14]": {"conditions": "Pseudomonas aeruginosa, read-out: MIC of imipenem"}, "[15]": {"conditions": "Klebsiella pneumoniae, read-out: MIC of imipenem"}}, "data": [{"smiles": "O=c1cc(CP(=O)(O)O)c2c(F)cc(F)cc2o1", "note": "[Compound 8, [(5,7-difluoro-2-oxo-2H-chromen-4-yl)methyl]phosphonic acid]", "values": [{"measurement": "Ki (NDM-1)", "setting": "NDM-1; nitrocefin substrate, 37 °C, pH 7.2, 50 μM zinc sulfate", "result": "did not show inhibition"}, {"measurement": "NDM-1 inhibition after pre-incubation of the compound with NDM-1", "setting": "NDM-1; pre-incubation, data not shown", "result": "weak inhibitory activity"}]}, {"smiles": "Cc1cc(Br)c2c(CP(=O)(O)O)cc(=O)oc2c1", "note": "[Compound 9, [(5-bromo-7-methyl-2-oxo-2H-chromen-4-yl)methyl]phosphonic acid]", "values": [{"measurement": "antibacterial effects by itself, without imipenem", "setting": "[1]", "result": "neither 9 nor 16 showed any antibacterial effects"}, {"measurement": "MIC", "setting": "[1]", "result": "> 128", "unit": "mg/L"}, {"measurement": "reduction of imipenem MIC", "setting": "E. coli 5980 (NDM-1)", "result": 4, "unit": "fold"}, {"measurement": "reduction of imipenem MIC", "setting": "E. cloacae 5981 (NDM-1)", "result": "did not have any activity"}, {"measurement": "reduction of imipenem MIC", "setting": "[2]", "result": "more than 2 fold"}]}, {"smiles": "O=c1cc(CP(=O)(O)O)c2ccccc2[nH]1", "note": "[Compound 11, [(2-oxo-1,2-dihydroquinolin-4-yl)methyl]phosphonic acid]", "values": [{"measurement": "MIC", "setting": "[1]", "result": "> 128", "unit": "mg/L"}, {"measurement": "MIC of imipenem in the presence of compound", "setting": "[3]; compound at 128 μg/mL", "result": ">64", "unit": "mg/L"}, {"measurement": "reduction of imipenem MIC", "setting": "E. coli 5980 (NDM-1)", "result": "little if any effect"}, {"measurement": "reduction of imipenem MIC", "setting": "E. cloacae 5981 (NDM-1)", "result": "little if any effect"}, {"measurement": "reduction of imipenem MIC", "setting": "[2]", "result": "little if any effect"}]}, {"smiles": "Cc1cc(C)c2c(CP(=O)(O)O)cc(=O)[nH]c2c1", "note": "[Compound 13, [(5,7-dimethyl-2-oxo-1,2-dihydroquinolin-4-yl)methyl]phosphonic acid]", "values": [{"measurement": "MIC", "setting": "[1]", "result": "> 128", "unit": "mg/L"}, {"measurement": "MIC of imipenem in the presence of compound", "setting": "[3]; compound at 128 μg/mL", "result": ">64", "unit": "mg/L"}, {"measurement": "reduction of imipenem MIC", "setting": "[3]; compound at 128 μg/mL, VIM-2 producing P. aeruginosa", "result": "unable to rescue imipenem activity"}, {"measurement": "reduction of imipenem MIC", "setting": "E. coli 5980 (NDM-1)", "result": 4, "unit": "fold"}, {"measurement": "reduction of imipenem MIC", "setting": "E. cloacae 5981 (NDM-1)", "result": "unable to rescue imipenem activity"}, {"measurement": "reduction of imipenem MIC", "setting": "[2]", "result": "unable to rescue imipenem activity"}, {"measurement": "solubility kinetic", "setting": "[4]", "result": 0.0516, "unit": "mg/mL"}]}, {"smiles": "O=P(O)(O)Cc1ccnc2ccccc12", "note": "[Compound 15, [(quinolin-4-yl)methyl]phosphonic acid]", "values": [{"measurement": "potencies and ligand efficiencies inferior to DHQ comparator 11 (KPC-2)", "setting": "KPC-2; relative to compound 11", "result": "2–5 times"}]}, {"smiles": "O=c1cc(CP(=O)(O)O)c2c(Br)cc(Br)cc2[nH]1", "note": "[Compound 16, [(5,7-dibromo-2-oxo-1,2-dihydroquinolin-4-yl)methyl]phosphonic acid]", "values": [{"measurement": "antibacterial effects by itself, without imipenem", "setting": "[1]", "result": "neither 9 nor 16 showed any antibacterial effects"}, {"measurement": "higher affinity for VIM-2 than NDM-1", "setting": "VIM-2", "result": "~ 100 x"}, {"measurement": "increase in activity on replacing C7-Me in 9 by -Br (KPC-2)", "setting": "KPC-2; relative to compound 9", "result": "~ 12 fold"}, {"measurement": "activity improved over the parent DHQ analog 11 (KPC-2)", "setting": "KPC-2; relative to compound 11", "result": "~ 7,000 fold"}, {"measurement": "decrease in potency by overexpressing efflux pumps, against NDM-1", "setting": "[5]; eflx+ versus efflux-deleted strain", "result": "up to 4 fold"}, {"measurement": "MIC of imipenem in the presence of 16", "setting": "[6]; 16 at 16 μg/mL", "result": 16, "unit": "mg/L"}, {"measurement": "solubility kinetic", "setting": "[4]", "result": 0.0959, "unit": "mg/mL"}, {"measurement": "reduction of imipenem MIC", "setting": "[7]; 16 at 128 μg/mL, maximum observable", "result": 16, "unit": "fold"}, {"measurement": "reduction of imipenem MIC", "setting": "[8]; 16 at 128 μg/mL", "result": 16, "unit": "fold"}]}, {"smiles": "C[C@@H](O)[C@H]1C(=O)N2C(C(=O)O)=C(SCCN=CN)C[C@H]12", "note": "[Imipenem, imipenem, reference compound]", "values": [{"measurement": "MIC", "setting": "[3]; [14]", "result": "> 64", "unit": "mg/L"}, {"measurement": "MIC", "setting": "[9]", "result": 64, "unit": "mg/L"}, {"measurement": "MIC", "setting": "[10]", "result": 64, "unit": "mg/L"}, {"measurement": "MIC", "setting": "E. coli 5980 (NDM-1); Escherichia coli, read-out: MIC of imipenem", "result": 8, "unit": "mg/L"}, {"measurement": "MIC", "setting": "[5]; [14]", "result": 128, "unit": "mg/L"}, {"measurement": "MIC", "setting": "[6]; [15]", "result": 512, "unit": "mg/L"}, {"measurement": "MIC", "setting": "E. cloacae 5981 (NDM-1); Enterobacter cloacae, read-out: MIC of imipenem", "result": 2, "unit": "mg/L"}, {"measurement": "MIC", "setting": "[2]; [15]", "result": "> 64", "unit": "mg/L"}, {"measurement": "MIC", "setting": "[11]", "result": 2, "unit": "mg/L"}, {"measurement": "MIC", "setting": "[12]", "result": 2, "unit": "mg/L"}, {"measurement": "MIC", "setting": "[7]; [14]", "result": 32, "unit": "mg/L"}, {"measurement": "MIC", "setting": "[8]; [14]", "result": 128, "unit": "mg/L"}, {"measurement": "MIC", "setting": "[13]", "result": 32, "unit": "mg/L"}]}, {"smiles": "NC(=O)[C@@H]1CC[C@@H]2CN1C(=O)N2OS(=O)(=O)O", "note": "[avibactam]", "values": [{"measurement": "MIC of imipenem in the presence of avibactam", "setting": "[6]; avibactam at 16 μg/mL", "result": 1, "unit": "mg/L"}, {"measurement": "reduction of imipenem MIC", "setting": "[6]; inhibitor at 16 μg/mL", "result": 512, "unit": "fold"}]}]}
